Test results from patent publication US20090275648A1, “MACROCYCLIC GHRELIN RECEPTOR ANTAGONISTS AND INVERSE AGONISTS AND METHODS OF USING THE SAME” (priority 2005, published 2009).

Target: ghrelin receptor (Homo sapiens, UniProt Q92847)
Test: Aequorin functional assay (ghrelin receptor), Example 3
Format: cell-based
Set-up: host or cells: CHO-K1 cells co-expressing Gα16 and mitochondrially targeted Aequorin
Conditions: antagonist testing vs ghrelin at EC80 (3.7 nM)
From the text: The functional activity of compounds of the invention found to bind to the GHS-R1a receptor can be determined using the method described below. (LePoul, E.; et al. Adaptation of aequorin functional assay to high throughput screening. J. Biomol. Screen. 2002, 7, 57-65; Bednarek, M. A.; et al. Structure-function studies on the new growth hormone-releasing peptide ghrelin: minimal sequence of ghrelin necessary for activation of growth hormone secretagogue receptor 1a. J. Med. Chem. 2000, 43, 4370-4376; Palucki, B. L.; et al. Spiro(indoline-3,4′-piperidine) growth hormone secretagogues as ghrelin mimetics. Bioorg. Med. Chem. Lett. 2001, 11, 1955-1957).
Membranes were prepared using AequoScreen™ (EUROSCREEN, Belgium) cell lines expressing the human ghrelin receptor (cell line ES-410-A; receptor accession #60179). This cell line is constructed by transfection of the human ghrelin receptor into CHO-K1 cells co-expressing Gα16 and the mitochondrially targeted Aequorin (Ref #ES-WT-A5). • 1. Ghrelin (reference agonist; Bachem, #H-4864) • 2. Assay buffer: DMEM (Dulbecco's Modified Eagles Medium) containing 0.1% BSA (bovine serum albumin; pH 7.0. • 3. Coelenterazine (Molecular Probes, Leiden, The Netherlands)
Stock solutions of compounds (10 mM in 100% DMSO) were provided frozen on dry ice and stored at −20° C. prior to use. From the stock solution, mother solutions were made at a concentration of 500 μM 20-fold dilution in 26% DMSO. Assay plates were then prepared by appropriate dilution in DMEM medium containing 0.1% BSA. Under these conditions, the maximal final DMSO concentration in the assay was <0.6%.
AequoScreen™ cells were collected from culture plates with Ca^2+ and Mg^2+-free phosphate buffered saline (PBS) supplemented with 5 mM EDTA, pelleted for 2 minutes at 1000×g, re-suspended in DMEM-Ham's F12 containing 0.1% BSA at a density of 5×10^6 cells/ml and incubated overnight at room temperature in the presence of 5 μM coelenterazine. After loading, cells were diluted with assay buffer to a concentration of 5×10^5 cells/ml.
For agonist testing, 50 μl of the cell suspension was mixed with 50 μl of the appropriate concentration of test compound or ghrelin (reference agonist) in 96-well plates (duplicate samples). Ghrelin (reference agonist) is tested at several concentrations concurrently with the test compounds in order to validate the experiment. The emission of light resulting from receptor activation in response to ghrelin or test compounds was recorded using the Hamamatsu FDSS 6000 reader (Hamamatsu Photonics K.K., Japan).
For antagonist testing, an approximate EC80 concentration of ghrelin (i.e. 3.7 nM; 100 μL) was injected onto the cell suspension containing the test compounds (duplicate samples) 15-30 minutes after the end of agonist testing and the consequent emission of light resulting from receptor activation was measured as described in the paragraph above.
Results are expressed as Relative Light Units (RLU). […] For agonist testing, results for each concentration of test compound were expressed as percent activation relative to the signal induced by ghrelin at a concentration equal to the EC80 (i.e. 3.7 nM). EC50, Hill slope and % Emax values are reported.
For antagonist testing, results for each concentration of test compound were expressed as percent inhibition relative to the signal induced by ghrelin at a concentration equal to the EC80.

Sequence of ghrelin receptor (Q92847 whole entry): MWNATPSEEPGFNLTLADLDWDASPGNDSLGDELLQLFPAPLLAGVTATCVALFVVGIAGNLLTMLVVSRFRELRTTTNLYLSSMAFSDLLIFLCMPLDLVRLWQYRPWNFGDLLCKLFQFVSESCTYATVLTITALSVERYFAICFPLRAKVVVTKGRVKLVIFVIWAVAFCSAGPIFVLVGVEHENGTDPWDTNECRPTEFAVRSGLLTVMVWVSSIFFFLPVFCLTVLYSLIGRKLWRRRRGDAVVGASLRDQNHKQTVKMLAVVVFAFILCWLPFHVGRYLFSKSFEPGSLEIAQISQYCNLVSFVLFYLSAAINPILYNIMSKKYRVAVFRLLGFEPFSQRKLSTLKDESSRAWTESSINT

IC50: 1 to 100 nM
SMILES: CCC(C)[C@@H]1NCCOc2ccccc2/C=C/CNC(=O)[C@@H](Cc2ccccc2)NC(=O)[C@H](C(C)O)N(C)C1=O (stereo partly shown) [Compound 502]
